Results as given in patent US7723364B2, “N-[2-(2-pyridinyl) ethyl]benzamide compounds and their use as fungicides” (Bayer Cropscience SA, priority 2003, dated 2010).

Key:
[1] = system: Pyrenophora teres; assay: In vivo test on Pyrenophora teres (barley net blotch); conditions: 288 h, dose of 330 ppm, barley plants sprayed 24 hours before contamination, grading 12 days after contamination vs control plants, read-out: good (at least 50%) or total protection
Description: In Vivo Test on Pyrenophora teres (Barley Net Blotch)
(§1) The active ingredient tested is prepared by potter homogenisation in a concentrated suspension type formulation at 100 g/l. This suspension is then diluted with water to obtain the desired active material concentration.
(§2) Barley plants (Express variety) in starter cups, sown on a 50/50 peat soil-pozzolana substrate and grown at 12° C., are treated at the 1-leaf stage (10 cm tall) by spraying with the aqueous suspension described above. Plants, used as controls, are treated with an aqueous solution not containing the active material.
After 24 hours, the plants are contaminated by spraying them with an aqueous suspension of Pyrenophora teres spores (12,000 spores per ml). The spores are collected from a 12-day-old culture. The contaminated barley plants are incubated for 24 hours at about 20° C. and at 100% relative humidity, and then for 12 days at 80% relative humidity.

[2] = system: Botrytis cinerea; assay: In vivo test on Botrytis cinerea (cucumber grey mould); conditions: Botrytis cinerea; dose of 330 ppm; cucumber plants sprayed 24 hours before contamination; grading 5/7 days after contamination vs control plants; read-out: good (at least 50%) or total protection
Description: In Vivo Test on Botrytis cinerea (Cucumber Grey Mould)
as §1
as §2, with “Cucumber” for “Barley”, “(Marketer” for “(Express”, “18-20°” for “12°”, “cotyledon Z11” for “1-leaf”, “stage” for “stage (10 cm tall)”
After 24 hours, the plants are contaminated by depositing drops of an aqueous suspension of Botrytis cinerea spores (150,000 spores per ml) on upper surface of the leaves. The spores are collected from a 15-day-old culture and are suspended in a nutrient solution composed of:
The contaminated cucumber plants are settled for 5/7 days in a climatic room at 15-11° C. (day/night) and at 80% relative humidity.
Grading is carried out 5/7 days after the contamination, in comparison with the control plants. Under these conditions, good (at least 50%) or total protection is observed at a dose of 330 ppm with the following compounds: 1, 2, 3, 4, 5, 6, 9, 10, 13, 18, 21, 22, 23, 25, 26, 27, 28, 29, 32, 34, 35, 38, 40, 43, 44, 45, 46, 47, 50, 51, 52, 53, 57 and 62.

[3] = system: Erysiphe graminis f. sp. tritici; assay: In vivo test on Erysiphe graminis f. sp. tritici (powdery mildew of wheat); conditions: Blumeria graminis; dose of 330 ppm; wheat plants sprayed 24 hours before contamination; grading 7 to 14 days after contamination vs control plants; read-out: good (at least 50%) or total protection
Description: In Vivo Test on Erysiphe graminis f. sp. tritici (Powdery Mildew of Wheat)
as §1
Wheat plants (Audace variety) in starter cups, sown on 50/50 peat soil-pozzolana substrate and grown at 12° C., are treated at the 1-leaf stage (10 cm tall) by spraying with the aqueous suspension described above.
(§3) Plants, used as controls, are treated with an aqueous solution not containing the active material.
After 24 hours, the plants are contaminated by dusting them with Erysiphe graminis f. sp. tritici spores, the dusting being carried out using diseased plants.
Grading is carried out 7 to 14 days after the contamination, in comparison with the control plants.
Under these conditions, good (at least 50%) or total protection is observed at a dose of 330 ppm with the following compounds: 1, 3, 4, 5, 6, 8, 9, 10, 11, 12, 13, 18, 38, 50, 43 and 45.

[4] = system: Alternaria brassicae; assay: In vivo test on Alternaria brassicae (leaf spot of crucifers) on radish plants; conditions: Alternaria brassicae; dose of 330 ppm; radish plants sprayed 24 hours before contamination; grading 6 to 7 days after contamination vs control plants; read-out: good (at least 50%) or total protection
Description: In Vivo Test on Alternaria brassicae (Leaf Spot of Crucifers)
as §1
Radish plants (Pernot variety) in starter cups, sown on a 50/50 peat soil-pozzolana substrate and grown at 18-20° C., are treated at the cotyledon stage by spraying with the aqueous suspension described above.
as §3
After 24 hours, the plants are contaminated by spraying them with an aqueous suspension of Alternaria brassicae spores (40,000 spores per cm^3). The spores are collected from a 12 to 13 days-old culture.
The contaminated radish plants are incubated for 6-7 days at about 18° C., under a humid atmosphere.
Grading is carried out 6 to 7 days after the contamination, in comparison with the control plants.

Row | melting point [°C] | SMILES | pest or weed control at 330 ppm [1] [%] | pest or weed control at 330 ppm [2] [%] | pest or weed control at 330 ppm [3] [%] | pest or weed control at 330 ppm [4] [%]
1 |  | O=C(NCCc1nc(F)ccc1Cl)c1ccccc1C(F)(F)F [Compound 13] | ≥ 50 | ≥ 50 | ≥ 50 | ≥ 50
2 |  | Cc1cc(Br)cnc1CCNC(=O)c1ccccc1C(F)(F)F [Compound 18] | ≥ 50 | ≥ 50 | ≥ 50 | ≥ 50
3 | 133 | O=C(NCCc1ncc(Cl)cc1Cl)c1ccccc1I [Compound 5, N-[2-(3,5-dichloro-2-pyridinyl)ethyl]-2-(iodo)benzamide] | ≥ 50 | ≥ 50 | ≥ 50 | ≥ 50
4 |  | Cc1c(F)c(F)nc(CCNC(=O)c2ccccc2I)c1F [Compound 43] | ≥ 50 | ≥ 50 | ≥ 50 | ≥ 50
5 |  | Cc1ccccc1C(=O)NCCc1ncc(Cl)cc1Cl [Compound 3] | ≥ 50 | ≥ 50 | ≥ 50 | ≥ 50
6 |  | O=C(NCCc1nc(F)c(F)cc1F)c1ccccc1I [Compound 45] | ≥ 50 | ≥ 50 | ≥ 50 | ≥ 50
7 | 118 | O=C(NCCc1ncc(Cl)cc1Cl)c1ccccc1C(F)(F)F [Compound 1, N-[2-(3,5-dichloro-2-pyridinyl)ethyl]-2-(trifluoromethyl)benzamide] | ≥ 50 | ≥ 50 | ≥ 50 | ≥ 50
8 |  | Cc1ccc(CCNC(=O)c2ccccc2C(F)(F)F)nc1 [Compound 9] | ≥ 50 | ≥ 50 | ≥ 50 | ≥ 50
9 |  | O=C(NCCc1ncc(Cl)cc1Br)c1ccccc1C(F)(F)F [Compound 38] | ≥ 50 | ≥ 50 | ≥ 50 | ≥ 50
